Measurements: US4405713A, “Process for the preparation of optically active anthracycline glycosides A and B” (priority 1981, dated 1983)
≈ marks a conversion by molar mass, not a printed value. Where two headings read alike, the source gives them in different places.

Tests used:
[1] = test system: Proteus vulgaris IAM 1025; assay: in vitro minimum inhibitory concentration (MIC), agar streak method; type: cell-based; conditions: IAM1025
[2] = test system: Klebsiella pheumonia IFO 3512; assay: as above; type: cell-based; conditions: IFO3512
Sarcina lutea IAM 1009 = assay: as above; type: cell-based; conditions: Micrococcus luteus, IAM1009
[3] = test system: Escherichia coli K-12 IAM 1264; assay: as above; type: cell-based; conditions: IAM1264
P388 leukemia = assay: antitumour activity against P388 leukemia in mice, survival time; type: in vivo, male CDF1 mice; conditions: i.p., days 1, 5 and 9; for Mean survival: control 10.6 ± 0.6
Protocol: 4-Deoxy-aclacinomycin A obtained in the present invention was tested against P388 leukemia in mice. When male CDF1 mice (5 week old) were inoculated with 10^6 of P388 leukemia cells intraperitoneally and the antibiotic was administered through the same route on days 1, 5 and 9, the survival time of the treated mice was prolonged as shown in Table 6.

[4] = toxicity (survival of treated mice); type: in vivo
Protocol: All the mice treated with 100 mg/kg of 4-deoxy-aclacinomycin A, i.p., survived more than 7 days.

[5] = test system: Bacillus subtilis IAM 1027; assay: in vitro minimum inhibitory concentration (MIC), agar streak method; type: cell-based; conditions: IAM1027
[6] = test system: Pseudomonas aeruginosa IFO 12689; assay: as above; type: cell-based; conditions: IFO12689
[7] = test system: Staphylococcus aureus 209P IAM 1011; assay: as above; type: cell-based
[8] = test system: Staphylococcus epidermidis IFO 12993; assay: as above; type: cell-based; conditions: IFO12993
[9] = test system: Micrococcus flavus ATCC 10240; assay: as above; type: cell-based; conditions: ATCC10240

`CC[C@@]1(O)C[C@H](O[C@H]2C[C@H](N(C)C)[C@H](O[C@H]3C[C@H](O)[C@H](O[C@H]4CCC(=O)[C@H](C)O4)[C@H](C)O3)[C@H](C)O2)c2c(cc3c(c2O)C(=O)c2ccccc2C3=O)[C@H]1C(=O)OC` [4-Deoxy-aclacinomycin A, 4-deoxy-aclacinomycin A] gave an MIC ([1]; Proteus vulgaris IAM 1025, read-out: MIC) of over 100 µg/mL, an MIC ([2]; Klebsiella pheumonia IFO 3512, read-out: MIC) of over 100 µg/mL and an MIC (Sarcina lutea IAM 1009; Sarcina lutea IAM 1009, read-out: MIC) of 0.19 µg/mL (≈ 0.239 µM). For the same compound, the MIC ([3]; Escherichia coli K-12 IAM 1264, read-out: MIC) was over 100 µg/mL, the “Increase in life span (%)” value (P388 leukemia; total dose 5.6 mg/Kg) was 8% and the Mean survival (P388 leukemia; total dose 5.6 mg/Kg) was 11.5 ± 0.5 days. The “Increase in life span (%)” value (P388 leukemia; total dose 11.3 mg/Kg) was 18%, the Mean survival (P388 leukemia; total dose 11.3 mg/Kg) was 12.5 ± 0.5 days and the “Increase in life span (%)” value (P388 leukemia; total dose 22.5 mg/Kg) was 23%. For the same compound, the Mean survival (P388 leukemia; total dose 22.5 mg/Kg) was 13.0 ± 0.0 days, the “Increase in life span (%)” value (P388 leukemia; total dose 45 mg/Kg) was 27% and the Mean survival (P388 leukemia; total dose 45 mg/Kg) was 13.5 ± 0.5 days. The “Increase in life span (%)” value (P388 leukemia; total dose 90 mg/Kg) was 57%, the Mean survival (P388 leukemia; total dose 90 mg/Kg) was 16.5 ± 0.5 days and the “survival of all the mice treated” value ([4]; 100 mg/kg, i.p.) was “more than 7 days”. For the same compound, the “toxicity as compared with that of aclacinomycin A” value ([4]; statement in words) was “very low as compared with that of aclacinomycin A”, the MIC ([5]; Bacillus subtilis IAM 1027, read-out: MIC) was 0.39 µg/mL (≈ 0.49 µM) and the MIC ([6]; Pseudomonas aeruginosa IFO 12689, read-out: MIC) was over 100 µg/mL. The MIC ([7]; Staphylococcus aureus 209P IAM 1011, read-out: MIC) was 0.78 µg/mL (≈ 0.98 µM), the MIC ([8]; Staphylococcus epidermidis IFO 12993, read-out: MIC) was 0.78 µg/mL (≈ 0.98 µM) and the MIC ([9]; Micrococcus flavus ATCC 10240, read-out: MIC) was 0.19 µg/mL (≈ 0.239 µM).
For `CC[C@@]1(O)C[C@H](O[C@H]2C[C@H](N(C)C)[C@H](O[C@H]3C[C@@H]4OC5CC(=O)C(C)OC5O[C@@H]4[C@H](C)O3)[C@H](C)O2)c2c(cc3c(c2O)C(=O)c2ccccc2C3=O)[C@H]1C(=O)OC` (stereo partly drawn) [4-Deoxy-aclacinomycin B, 4-deoxy-aclacinomycin B], the MIC ([1]; Proteus vulgaris) was over 100 µg/mL, the MIC ([2]; Klebsiella) was over 100 µg/mL and the MIC (Sarcina lutea IAM 1009) was 0.39 µg/mL (≈ 0.491 µM). For the same compound, the MIC ([3]; Escherichia coli) was over 100 µg/mL, the MIC ([5]; Bacillus subtilis) was 6.25 µg/mL (≈ 7.87 µM) and the MIC ([6]; Pseudomonas aeruginosa) was over 100 µg/mL. The MIC ([7]; Staphylococcus aureus) was 3.13 µg/mL (≈ 3.94 µM), the MIC ([8]; Staphylococcus epidermidis) was 3.13 µg/mL (≈ 3.94 µM) and the MIC ([9]; Micrococcus flavus) was 0.39 µg/mL (≈ 0.491 µM).
